Assay results: patent publication US20210198256A1, “COMPOUNDS FOR THE DEGRADATION OF BRD9 OR MTH1” (C4 Therapeutics, Inc., priority 2018, published 2021)

Tested on: SMARTCAR-MTH1-wt-HiBiT (Jurkat.7 cells)
Assay: HiBit Lytic Assay (HiBit DC50, MTH1 degraders of Table 2)
Assay type: cell-based, human
Conditions: Jurkat.7 SMARTCAR-MTH1-wt-HiBiT cells, compound treatment time 4 hr, 11-point half log dose response
Method in brief: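 Jurkat.7 cells expressing SMARTCAR-MTH1-wt-HiBiT were treated at 37° C with 11-point half-log dilutions (top final 1000 nM or 833 nM, duplicates, 0.1% DMSO). Remaining HiBiT-tagged protein was read by Nano-Glo HiBiT lytic luminescence, normalized to media-only and DMSO controls.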

| SMILES | DC50 |
| --- | --- |
| CNC(=O)c1cnc2ccc(C(=O)NCCCCCCNC(=O)COc3cccc4c3C(=O)N(C3CCC(=O)NC3=O)C4=O)cc2c1Nc1ccccc1 (stereo not drawn) [Compound 458, N6-(6-(2-((2-(2,6-dioxopiperidin-3-yl)-1,3-dioxoisoindolin-4-yl)oxy)acetamido)hexyl)-N3-methyl-4-(phenylamino)quinoline-3,6-dicarboxamide] | < 100 nM |
| NC(=O)c1cnc2ccc(NCCCCCCCCNC(=O)COc3cccc4c3C(=O)N(C3CCC(=O)NC3=O)C4=O)cc2c1Nc1ccccc1 (stereo not drawn) [Compound 466, 6-((8-(2-((2-(2,6-dioxopiperidin-3-yl)-1,3-dioxoisoindolin-4-yl)oxy)acetamido)octyl)amino)-4-(phenylamino)quinoline-3-carboxamide] | < 100 nM |
| CNc1c(C(=O)NC2CC2)cnc2cc(C(F)(F)F)c(-c3ccc(C(=O)NCCCCn4cc(C5(Nc6cccc7c6C(=O)N(C6CCC(=O)NC6=O)C7=O)CC5)nn4)c(F)c3)cc12 (stereo not drawn) [Compound 421, N-cyclopropyl-6-[4-[4-[4-[1-[[2-(2,6-dioxo-3-piperidyl)-1,3-dioxo-isoindolin-4-yl]amino]cyclopropyl]triazol-1-yl]butylcarbamoyl]-3-fluoro-phenyl]-4-(methylamino)-7-(trifluoromethyl)quinoline-3-carboxamide] | < 100 nM |
| NC(=O)c1cnc2ccc(N3CCN(C(=O)CCCCCNC(=O)COc4cccc5c4C(=O)N(C4CCC(=O)NC4=O)C5=O)CC3)cc2c1Nc1ccccc1 (stereo not drawn) [Compound 310, 6-(4-(6-(2-((2-(2,6-dioxopiperidin-3-yl)-1,3-dioxoisoindolin-4-yl)oxy)acetamido)hexanoyl)piperazin-1-yl)-4-(phenylamino)quinoline-3-carboxamide] | < 1000 nM |
| O=C(CNc1cccc2c1C(=O)N(C1CCC(=O)NC1=O)C2=O)NCCCCNC(=O)c1ccc(-c2cc3c(NC45CC(C4)C5)c(C(=O)NC4CC4)cnc3cc2F)cc1F (stereo not drawn) [Compound 424, 4-(3-bicyclo[1.1.1]pentanylamino)-N-cyclopropyl-6-[4-[4-[[2-[[2-(2,6-dioxo-3-piperidyl)-1,3-dioxo-isoindolin-4-yl]amino]acetyl]amino]butylcarbamoyl]-3-fluoro-phenyl]-7-fluoro-quinoline-3-carboxamide] | < 100 nM |
| NC(=O)c1cnc2ccc(-c3ccc(C(=O)N[C@H]4CC[C@@H](NC(=O)CNC(=O)COc5cccc6c5C(=O)N(C5CCC(=O)NC5=O)C6=O)CC4)cc3)cc2c1Nc1ccccc1 (stereo partly drawn) [Compound 308, 6-(4-(((1s,4s)-4-(2-(2-((2-(2,6-dioxopiperidin-3-yl)-1,3-dioxoisoindolin-4-yl)oxy)acetamido)acetamido)cyclohexyl)carbamoyl)phenyl)-4-(phenylamino)quinoline-3-carboxamide] | < 100 nM |
| CNC(=O)c1cnc2ccc(-c3ccc(C(=O)NCCCCNC(=O)CN(C)c4cccc5c4C(=O)N(C4CCC(=O)NC4=O)C5=O)cc3)cc2c1Nc1ccccc1 (stereo not drawn) [Compound 471, 6-(4-((4-(2-((2-(2,6-dioxopiperidin-3-yl)-1,3-dioxoisoindolin-4-yl)(methyl)amino)acetamido)butyl)carbamoyl)phenyl)-N-methyl-4-(phenylamino)quinoline-3-carboxamide] | < 100 nM |
| CNC(=O)c1cnc2ccc(NCCCCCCCCCCNC(=O)C(C)Oc3cccc4c3C(=O)N(C3CCC(=O)NC3=O)C4=O)cc2c1Nc1ccccc1 (stereo not drawn) [Compound 442, 6-((10-(2-((2-(2,6-dioxopiperidin-3-yl)-1,3-dioxoisoindolin-4-yl)oxy)propanamido)decyl)amino)-N-methyl-4-(phenylamino)quinoline-3-carboxamide] | < 100 nM |
| CNC(=O)c1cnc2ccc(NCCCCCCCCCCNC(=O)[C@H](C)Nc3cccc4c3C(=O)N(C3CCC(=O)NC3=O)C4=O)cc2c1Nc1ccccc1 (stereo partly drawn) [Compound 445, 6-((10-((2S)-2((2-(2,6-dioxopiperidin-3-yl)-1,3-dioxoisoindolin-4-yl)amino)propanamido)decyl)amino)-N-methyl-4-(phenylamino)quinoline-3-carboxamide] | < 100 nM |
| CNc1c(C(=O)NC2CC2)cnc2cc(F)c(-c3ccc(C(=O)NCCCCCCCc4cnc5c(c4)CN(C4CCC(=O)NC4=O)C5=O)c(F)c3)cc12 (stereo not drawn) [Compound 401, N-cyclopropyl-6-[4-[7-[6-(2,6-dioxo-3-piperidyl)-7-oxo-5H-pyrrolo[3,4-b]pyridin-3-yl]heptylcarbamoyl]-3-fluoro-phenyl]-7-fluoro-4-(methylamino)quinoline-3-carboxamide] | < 100 nM |
| CNc1c(C(=O)NC2CC2)cnc2cc(C(F)(F)F)c(-c3ccc(C(=O)NCCCCn4cc(C(C)(C)Nc5cccc6c5C(=O)N(C5CCC(=O)NC5=O)C6=O)nn4)c(F)c3)cc12 (stereo not drawn) [Compound 435, N-cyclopropyl-6-(4-((4-(4-(2-((2-(2,6-dioxopiperidin-3-yl)-1,3-dioxoisoindolin-4-yl)amino)propan-2-yl)-1H-1,2,3-triazol-1-yl)butyl)carbamoyl)-3-fluorophenyl)-4-(methylamino)-7-(trifluoromethyl)quinoline-3-carboxamide] | < 100 nM |
| O=C1CCC(N2Cc3c(CCCC(O)C(=O)NCCNC(=O)c4ccc(-c5cc6c(Nc7ccccc7)c(C(=O)NC7CC7)cnc6cc5F)cc4F)cccc3C2=O)C(=O)N1 (stereo not drawn) [Compound 439, N-cyclopropyl-6-(4-((2-(5-(2-(2,6-dioxopiperidin-3-yl)-1-oxoisoindolin-4-yl)-2-hydroxypentanamido)ethyl)carbamoyl)-3-fluorophenyl)-7-fluoro-4-(phenylamino)quinoline-3-carboxamide] | < 100 nM |

Further lines, results first:

| DC50 | SMILES |
| --- | --- |
| < 100 nM | CNC(=O)c1cnc2cc(F)c(-c3ccc(C(=O)NCCCCn4cc(CNc5cccc6c5C(=O)N(C5CCC(=O)NC5=O)C6=O)nn4)nc3)cc2c1Nc1ccccc1 (stereo not drawn) [Compound 389, 6-(6-((4-(4-(((2-(2,6-dioxopiperidin-3-yl)-1,3-dioxoisoindolin-4-yl)amino)methyl)-1H-1,2,3-triazol-1-yl)butyl)carbamoyl)pyridin-3-yl)-7-fluoro-N-methyl-4-(phenylamino)quinoline-3-carboxamide] |
| < 100 nM | CNC(=O)c1cnc2ccc(-c3ccc(C(=O)NCCCCn4cc(CNc5cccc6c5C(=O)N(C5CCC(=O)NC5=O)C6=O)nn4)cc3)cc2c1Nc1ccccc1 (stereo not drawn) [Compound 356, 4-anilino-6-[4-[4-[4-[[[2-(2,6-dioxo-3-piperidyl)-1,3-dioxo-isoindolin-4-yl]amino]methyl]triazol-1-yl]butylcarbamoyl]phenyl]-N-methyl-quinoline-3-carboxamide] |
| < 100 nM | CNC(=O)c1cnc2ccc(-c3ccc(C(=O)NCCCCNC(=O)CNc4cccc5c4C(=O)N(C4CCC(=O)NC4=O)C5=O)c(C)c3)cc2c1Nc1ccccc1 (stereo not drawn) [Compound 353, 4-anilino-6-[4-[4-[[2-[[2-(2,6-dioxo-3-piperidyl)-1,3-dioxo-isoindolin-4-yl]amino]acetyl]amino]butylcarbamoyl]-3-methyl-phenyl]-N-methyl-quinoline-3-carboxamide] |
| < 100 nM | CC(NC(=O)CCCCNC(=O)CNc1cccc2c1C(=O)N(C1CCC(=O)NC1=O)C2=O)c1ccc(-c2cc3c(Nc4ccccc4)c(C(=O)NC4CC4)cnc3cc2F)cc1F (stereo not drawn) [Compound 429, 4-anilino-N-cyclopropyl-6-[4-[1-[5-[[2-[[2-(2,6-dioxo-3-piperidyl)-1,3-dioxo-isoindolin-4-yl]amino]acetyl]amino]pentanoylamino]ethyl]-3-fluoro-phenyl]-7-fluoro-quinoline-3-carboxamide] |
| < 100 nM | CNC(=O)c1cnc2cc(OC)c(-c3ccc(C(=O)NCCCCNC(=O)[C@@H](C)Nc4cccc5c4C(=O)N(C4CCC(=O)NC4=O)C5=O)nc3)cc2c1Nc1ccccc1 (stereo partly drawn) [Compound 382, 6-(6-((4-((2R)-2-((2-(2,6-dioxopiperidin-3-yl)-1,3-dioxoisoindolin-4-yl)amino)propanamido)butyl)carbamoyl)pyridin-3-yl)-7-methoxy-N-methyl-4-(phenylamino)quinoline-3-carboxamide] |
| < 100 nM | COc1cc2ncc(C(=O)NC3CC3)c(Nc3ccccc3)c2cc1-c1ccc(C(=O)NCCCCn2cc(CNc3cccc4c3C(=O)N(C3CCC(=O)NC3=O)C4=O)nn2)nc1 (stereo not drawn) [Compound 396, 4-anilino-N-cyclopropyl-6-[6-[4-[4-[[[2-(2,6-dioxo-3-piperidyl)-1,3-dioxo-isoindolin-4-yl]amino]methyl]triazol-1-yl]butylcarbamoyl]-3-pyridyl]-7-methoxy-quinoline-3-carboxamide] |
| < 100 nM | COc1cc2ncc(C(=O)NC3CC3)c(Nc3ccccc3)c2cc1-c1ccc(C(=O)NCCCCn2cc(COc3cccc4c3C(=O)N(C3CCC(=O)NC3=O)C4=O)nn2)c(F)c1 (stereo not drawn) [Compound 414, 4-anilino-N-cyclopropyl-6-[4-[4-[4-[[2-(2,6-dioxo-3-piperidyl)-1,3-dioxo-isoindolin-4-yl]oxymethyl]triazol-1-yl]butylcarbamoyl]-3-fluoro-phenyl]-7-methoxy-quinoline-3-carboxamide] |
| < 100 nM | CNC(=O)c1cnc2cc(C(F)(F)F)c(-c3ccc(C(=O)NCCCCNC(=O)CNc4cccc5c4C(=O)N(C4CCC(=O)NC4=O)C5=O)nc3)cc2c1Nc1ccccc1 (stereo not drawn) [Compound 388, 6-(6-((4-(2-((2-(2,6-dioxopiperidin-3-yl)-1,3-dioxoisoindolin-4-yl)amino)acetamido)butyl)carbamoyl)pyridin-3-yl)-N-methyl-4-(phenylamino)-7-(trifluoromethyl)quinoline-3-carboxamide] |
| < 100 nM | CNC(=O)c1cnc2cc(OC)c(-c3ccc(C(=O)NCCCCNC(=O)COc4cccc5c4C(=O)N(C4CCC(=O)NC4=O)C5=O)cc3)cc2c1Nc1ccccc1 (stereo not drawn) [Compound 475, 6-(4-((4-(2-((2-(2,6-dioxopiperidin-3-yl)-1,3-dioxoisoindolin-4-yl)oxy)acetamido)butyl)carbamoyl)phenyl)-7-methoxy-N-methyl-4-(phenylamino)quinoline-3-carboxamide] |
